Laboratory results from paper PMC12040169 (PLOS Biology, 2025).

Assay: in vitro
Details: human, hela cells, % viability
With CC1CCN(S(=O)(=O)c2ccc(C(=O)N[C@@H](C)C(=O)O)cc2)CC1 [CBK297106] the viability at 28.5 h, 10 µM was 96.6%. CSCc1ccc(C(=O)Nc2cc(C(=O)O)ccc2C)cc1 [CBK297107] gave a viability at 28.5 h, 10 µM of 93%. Work on COc1ccc(-c2nnc(SC(C)c3nnc(-c4ccccc4)o3)n2CC(C)C)cc1 (stereo not shown) [CBK297108] yielded a viability at 28.5 h, 10 µM of 103%. CCCn1c(SCC(=O)N2CCN(C(=O)c3cccs3)CC2)n[nH]c1=O [CBK297109] gave a viability at 28.5 h, 10 µM of 97.6%. For O=C1COc2ccc(C(=O)CSc3nnc(C4CC4)n3C3CC3)cc2N1 [CBK297110], the viability at 28.5 h, 10 µM was 73.4%. Work on Cc1ccc2cc(COc3cccnc3[N+](=O)[O-])c(Cl)nc2c1C [CBK297113] yielded a viability at 28.5 h, 10 µM of 103%. Molecule CC1CC(=O)Nc2ccccc2N1C(=O)Cn1c(=O)cnc2ccccc21 (stereo not shown) [CBK297116] has a viability at 28.5 h, 10 µM of 95%. Cc1c(C(=O)O)sc(S(=O)(=O)N2CCN(C(=O)c3ccc(F)cc3)CC2)c1C(=O)O [CBK297118] gave a viability at 28.5 h, 10 µM of 107%. With Cc1ccc(C(=O)N2CCN(S(=O)(=O)c3sc(C(=O)O)c(C)c3C(=O)O)CC2)cc1 [CBK297120] the viability at 28.5 h, 10 µM was 91.1%. For Cc1c(C(=O)O)sc(S(=O)(=O)N2CCN(C(=O)CC3CCCC3)CC2)c1C(=O)O [CBK297122], the viability at 28.5 h, 10 µM was 101%. Work on Cc1c(C(=O)O)sc(S(=O)(=O)N2CCN(C(=O)c3ccc(Cl)cc3)CC2)c1C(=O)O [CBK297123] yielded a viability at 28.5 h, 10 µM of 96.9%. Cc1ccc2nc(Cn3cc(-c4cnn(Cc5ccccc5)c4)cn3)cn2c1 [CBK297125] gave a viability at 28.5 h, 10 µM of 90.4%. COc1cccc(-c2noc(Cn3cnc4sccc4c3=O)n2)c1 [CBK297127] showed a viability at 28.5 h, 10 µM of 85.3%. In the case of COc1ccc(S(=O)(=O)N2CCCCC2)cc1NC(=O)c1ccc(-c2nnn[nH]2)cc1 [CBK297128], the viability at 28.5 h, 10 µM is reported as 93%. Molecule O=C(Cc1ccc2c(c1)CCCC2)Nc1cccc(-c2nnn[nH]2)c1 [CBK297129] has a viability at 28.5 h, 10 µM of 114%. O=C(CCCc1nc2ccccc2c(=O)[nH]1)NC(Cc1ccc(O)cc1)C(=O)O (stereo not shown) [CBK297130] showed a viability at 28.5 h, 10 µM of 101%. Molecule CC(CCc1ccccc1)NC(=O)C(C)Sc1nnc(-c2cccs2)n1C1CC1 (stereo not shown) [CBK297131] has a viability at 28.5 h, 10 µM of 89.5%. CCOCCCn1c(SCC(=O)NC(Cc2ccccc2)C(=O)O)nc2ccccc2c1=O (stereo not shown) [CBK297132] gave a viability at 28.5 h, 10 µM of 90.5%. Molecule Cn1c(SCC(=O)Nc2cc(C(C)(C)C)no2)nnc1-c1ccc(C(C)(C)C)cc1 [CBK297133] has a viability at 28.5 h, 10 µM of 89.6%. With Cc1c(C(=O)O)sc(S(=O)(=O)N2CCN(C(=O)Cc3ccsc3)CC2)c1C(=O)O [CBK297134] the viability at 28.5 h, 10 µM was 89.8%. Molecule Cc1c(C(=O)O)sc(S(=O)(=O)N2CCN(C(=O)Cc3ccccc3Cl)CC2)c1C(=O)O [CBK297137] has a viability at 28.5 h, 10 µM of 107%. Work on CCc1ccc(CCC(=O)N2CCN(S(=O)(=O)c3sc(C(=O)O)c(C)c3C(=O)O)CC2)cc1 [CBK297138] yielded a viability at 28.5 h, 10 µM of 111%. Work on O=C(O)c1cn(C2CC2)c2cc(N3CCN(C(=O)C4CCCO4)CC3)c(F)cc2c1=O (stereo not shown) [CBK297139] yielded a viability at 28.5 h, 10 µM of 97.7%. Cc1c(C(=O)O)sc(S(=O)(=O)N2CCN(C(=O)CC(C)c3ccccc3)CC2)c1C(=O)O (stereo not shown) [CBK297143] showed a viability at 28.5 h, 10 µM of 97.4%. Molecule CSc1ccccc1C(=O)N1CCN(S(=O)(=O)c2sc(C(=O)O)c(C)c2C(=O)O)CC1 [CBK297149] has a viability at 28.5 h, 10 µM of 90.4%. Molecule CC1CCN(S(=O)(=O)c2ccc(C(=O)NC(C(=O)O)C(C)O)cc2)CC1 (stereo not shown) [CBK297151] has a viability at 28.5 h, 10 µM of 99.1%. Molecule Cc1ccc(-c2cc(C(=O)N3CCN(C4CCS(=O)(=O)C4)CC3)c3ccccc3n2)cc1 (stereo not shown) [CBK297153] has a viability at 28.5 h, 10 µM of 112%. Cc1nnc(CSc2ncc(-c3ccc(Cl)cc3)n2Cc2ccccc2)o1 [CBK297154] showed a viability at 28.5 h, 10 µM of 103%. For COc1ccc(CN2CCN(C(=O)NS(=O)(=O)c3ccc(C)cc3)CC2)cc1F [CBK297156], the viability at 28.5 h, 10 µM was 98.5%. Clc1cc(CSc2nnnn2-c2ccccc2)cc2c1OCCCO2 [CBK297159] gave a viability at 28.5 h, 10 µM of 92.5%. With Cc1ccc(C(=O)O)cc1NC(=O)CSc1nc2scc(C3CC3)c2c(=O)n1-c1ccccc1 [CBK297481] the viability at 28.5 h, 10 µM was 107%. With Cc1cc(C)n2nc(SCc3nc4sc(C(=O)O)c(C)c4c(=O)[nH]3)nc2n1 [CBK297482] the viability at 28.5 h, 10 µM was 88.1%. O=[N+]([O-])c1ccc(Sc2nnc(-c3cccs3)n2CC2CCCO2)cn1 (stereo not shown) [CBK297483] gave a viability at 28.5 h, 10 µM of 94.6%. With COc1cc(C=CC(=O)O)cc(S(=O)(=O)Nc2ccccc2C(=O)NCCc2ccccc2)c1OC [CBK297487] the viability at 28.5 h, 10 µM was 99.5%. Molecule O=C(Cn1nnc2ccccc21)NC(c1ccccc1)c1ccccc1 [CBK297488] has a viability at 28.5 h, 10 µM of 110%. With CC[C@H](C)[C@H](NC(N)=O)C(=O)Nc1ccc(F)c([N+](=O)[O-])c1 [CBK297489] the viability at 28.5 h, 10 µM was 97.1%. With Cc1ccc(C(=O)O)cc1NS(=O)(=O)c1ccc2c(c1)OCCO2 [CBK297497] the viability at 28.5 h, 10 µM was 90.7%. With COc1cccc(NCc2nnc(SCC(=O)O)n2C2CCCCC2)c1 [CBK297499] the viability at 28.5 h, 10 µM was 95.6%. For Cn1nc(C(=O)NCCSc2n[nH]c(=O)[nH]c2=O)c2ccccc2c1=O [CBK297501], the viability at 28.5 h, 10 µM was 79.1%. In the case of COc1ccc(C2CC(c3ccc4ccccc4c3)=NN2C(=O)COc2ccccc2C(=O)O)cc1 (stereo not shown) [CBK297503], the viability at 28.5 h, 10 µM is reported as 102%. Molecule Cc1cc(C(=O)Cn2nc(C(=O)O)c3ccccc3c2=O)c(C)n1Cc1ccccc1Cl [CBK297504] has a viability at 28.5 h, 10 µM of 111%. In the case of COc1ccc(CCNC(=O)c2ccccc2NS(=O)(=O)c2cc(C(=O)O)ccc2OC)cc1 [CBK297506], the viability at 28.5 h, 10 µM is reported as 90.8%. CCOc1ccc2cc(C3CC(c4ccc(C)cc4)=NN3C(=O)CCC(=O)O)c(Cl)nc2c1 (stereo not shown) [CBK297508] gave a viability at 28.5 h, 10 µM of 87.2%. For Cc1cccc(NC(=O)[C@@H](NC(=O)c2ccccc2F)C(C)C)c1C [CBK297509], the viability at 28.5 h, 10 µM was 85.4%. With Cc1[nH]c2ccccc2c1C(=O)CSc1nc(N)cc(=O)[nH]1 [CBK297511] the viability at 28.5 h, 10 µM was 103%. Work on CCOc1ccc(-n2c(SCC(=O)Nc3cc(C(=O)O)ccc3Cl)nc3ccccc3c2=O)cc1 [CBK297512] yielded a viability at 28.5 h, 10 µM of 109%. With O=C(CSc1ncc(C(=O)O)n1-c1ccc(F)cc1)NCCc1ccc(F)cc1 [CBK297513] the viability at 28.5 h, 10 µM was 93.3%. With O=C(Nc1ccc(Cl)c(Cl)c1)N1CCN(c2n[nH]c(=O)[nH]c2=O)CC1 [CBK297514] the viability at 28.5 h, 10 µM was 89.4%. With Cc1ccc2c(CSc3nc(N)cc(N)n3)cc(=O)oc2c1C [CBK297519] the viability at 28.5 h, 10 µM was 87.7%. C=CCn1c(SCC(=O)Nc2nc3ccc(OCC)cc3s2)nc2cc(C(=O)O)ccc2c1=O [CBK297520] gave a viability at 28.5 h, 10 µM of 113%. CN(c1ccccc1)S(=O)(=O)c1ccc(C(=O)NCc2cccnc2)cc1 [CBK297522] gave a viability at 28.5 h, 10 µM of 95.5%. Molecule CCCCOc1ccc(C=Cc2nc3sc(C(=O)O)c(C)c3c(=O)[nH]2)cc1 [CBK297524] has a viability at 28.5 h, 10 µM of 86.5%. Molecule Cc1ccc2[nH]c(SCC(=O)Nc3ccc(C(=O)O)cc3)nc2c1 [CBK297526] has a viability at 28.5 h, 10 µM of 85.7%. Molecule COc1ccc(-c2nnc(SCC(=O)NC(=O)c3ccccc3)n2CC(C)C)cc1 [CBK297527] has a viability at 28.5 h, 10 µM of 101%. Work on Cc1nc2sc(C(=O)OCc3cc(=O)oc4cc5c(cc34)CCC5)c(C)c2c(=O)[nH]1 [CBK297528] yielded a viability at 28.5 h, 10 µM of 114%. With Cc1ccc(C)c(Sc2ccc(S(=O)(=O)Nc3ccc(C(=O)O)cc3)cc2)c1 [CBK297529] the viability at 28.5 h, 10 µM was 109%. CC1(C)C(=O)Nc2ccccc2N1C(=O)COc1ncnc2sc3c(c12)CCC3 [CBK297530] gave a viability at 28.5 h, 10 µM of 89.9%. Work on CC(C)NS(=O)(=O)c1ccc(NS(=O)(=O)c2ccc(F)c(C(=O)O)c2)cc1 [CBK297533] yielded a viability at 28.5 h, 10 µM of 93.6%.
